Measured values reported in patent US12303724B2, “Non-adult human dosing of anti-CD30 antibody-drug conjugates for treatment of hematological or lymphoid cancer” (priority 2016, dated 2025).

Columns and labels:
Type in all cases: in vivo, human
[1] = system: relapsed or refractory (r/r) Hodgkin Lymphoma (HL) or systemic anaplastic large-cell lymphoma (sALCL); assay: Example 2: BSA-based BV monotherapy in pediatric patients
Protocol: Pediatric study subjects are administered BV (administered IV infusion, once every three weeks (21 days)) at a dose of 71.5 mg/m^2. Each 21-day treatment cycle is composed of 1 day study drug treatment, followed by a monitoring period of 20 days. Patients may receive BV for up to 16 cycles. Objective response rates (ORR; complete remission (CR)+ partial remission (PR)) are determined by an independent review facility (IRF) using PET, CT, MRI and, clinical assessment according to the International Working Group (IWG) Revised Response Criteria for Malignant Lymphoma. Time to progression (from the first dose of study treatment to the date of first documented progressive disease), time to response (from the first dose of study treatment to the date of first documentation of a complete or partial response), duration of response (from the date of first documentation of a response to the date of progressive disease), event-free survival (from first dose until treatment failure), progression-free survival (PFS; from the first dose of study treatment to disease progression or death), and overall survival (OS; from the first dose of study treatment to date of death) are also evaluated. Patients are followed for progression-free survival (PFS) and overall survival (OS) every 12 weeks for 12 months after the end of treatment (EOT) visit. […]

[2] = system: CD30-positive cutaneous t-cell lymphomas; assay: Example 5: BSA-based BV versus methotrexate or bexarotene in pediatric patients; conditions: BV 71.5 mg/m^2 IV every three weeks, monotherapy, up to 16 cycles
Protocol: Pediatric (non adult human) patients with CD30-positive cutaneous t-cell lymphomas (Primary Cutaneous Anaplastic Large Cell Lymphoma, Mycosis Fungoides, Cutaneous T-Cell Lymphoma) are provided. Study subjects are randomly assigned to one of the following treatments: 1) BV (administered IV, once every three weeks (21 days)) at a dose of 71.5 mg/m^2 as monotherapy for up to a total of 16 cycles; or 2) physician's choice of methotrexate or bexarotene (methotrexate is administered orally (5 to 50 mg) once weekly; dose adjustment is guided by patient response and toxicity or bexarotene is administered orally (300 mg/m^2) once daily with meals).
The proportion of patients achieving an objective response (ORR; complete remission (CR)+partial remission (PR)) that lasts at least 4 months is evaluated. The proportion of patients achieving complete response (CR) and progression-free survival (PFS) are also evaluated.

[3] = Phase 1/2 pediatric study of brentuximab vedotin: serum pharmacokinetics; conditions: pediatric patients, 1.4 or 1.8 mg/kg body weight every 3 weeks, AUC versus age (FIG. 1A)
From the text: This study had assessment of pharmacokinetics of BV in pediatric patients as one of its objectives.
The goal of phase 1 portion of the study was to establish safety and define MTD (maximum tolerated dose) of brentuximab vedotin in pediatric hematological malignancies with high expression of CD30, both HL and ALCL were included in the phase 1 study population. The phase 2 study was designed to administer brentuximab vedotin at the RP2D (recommended phase II dose) determined as the MTD [Maximum Tolerated Dose] in the phase 1 portion of the study.
Blood samples for determining BV levels from the serum were obtained at several time points during treatment with BV at the dose of 1.4 or 1.8 mg/kg body weight every 3 weeks. These doses were within the range of doses that were previously determined to be safe and efficacious in the adult population in earlier studies (Younes, et al., N. Engl J Med 363; 19, Nov. 2010).
The pharmacokinetic analyses described here included pharmacokinetic data from 30 pediatric patients for the initial analyses.

brentuximab vedotin
CR, PR, PFS, OS relative to treatments without BV ([1]; 71.5 mg/m^2 IV once every three weeks, up to 16 cycles): one or more of improved CR, PR, PFS, or OS | CR, PR, PFS, OS of BSA-adjusted doses relative to weight-adjusted dose ([1]; 71.5 mg/m^2 versus BV at a weight-adjusted dose): one or more of improved CR, PR, PFS or OS | ORR, CR, PFS relative to methotrexate or bexarotene [2]: one or more of improved ORR, CR or PFS | systemic exposure to BV as measured by the Area Under the concentration-time Curve (AUC) [3]: decrease in age from about 18 years led to decrease systemic exposure to BV
